Data published in patent US10668039B2, “Methods for treatment of adenoid cystic carcinoma” (THE CHILDREN'S MEDICAL CENTER CORPORATION, priority 2016, dated 2020).
“Also recorded” adds a separate entry of the source.

How the values were obtained:
c-myb [1] = assay: qPCR of sorted c-myb:GFP zebrafish embryo cells; format: cell-based; settings: sorted c-myb:GFP cells from 72 hpf embryos, 1 μM, 6 hours
Procedure: RA dose response experiments were plated similarly in LDF medium with the appropriate RA concentration. Sorted c-myb:GFP+ cells were collected from 72 hpf transgenic embryos that were homogenized: embryos were finely chopped and dissociated using Liberase (Roche), cell suspensions were filtered, and 58,000 GFP+ live cells were collected using a FACS Aria cell sorter (BD Biosciences). Cells were cultured for 6 hours in LDF medium, and then collected for qPCR.
(§1) Quantitative PCR: Total RNA from cells was extracted using Qiagen RNeasy Mini Kit, and random primed cDNA was generated (Invitrogen, SuperScript III First-Strand Synthesis System). The SsoFast EvaGreen (Biorad) method was used to quantify cDNAs of interest, which are represented as the fold change in transcript level. The amount of cDNA starting material for each sample was normalized in relation to species-specific β-actin expression for zebrafish samples, and both gapdh and β-actin expression for human samples. The primer sequences used were zebrafish myb: forward, 5′-[…]-3′ (SEQ ID No:1), reverse, 5′-[…]-3′ (SEQ ID No:2); zebrafish β-actin: forward, 5′-[…]-3′ (SEQ ID No:3), reverse, 5′-[…]-3′ (SEQ ID No:4); human myb: forward, 5′-[…]-3′ (SEQ ID No:5), reverse, 5′-[…]-3′ (SEQ ID No:6); human gapdh: forward, 5′-[…]-3′ (SEQ ID No:7), reverse, 5′-[…]-3′ (SEQ ID No:8); human β-actin: forward, 5′-[…]-3′ (SEQ ID No:9), reverse, 5′-[…]-3′ (SEQ ID No:10).
Zebrafish quantitative PCR analysis: Stage-matched 72 hpf c-myb:GFP transgenic embryos were finely chopped and dissociated using Liberase (Roche). GFP+ cells were collected using a FACS Aria cell sorter (BD Biosciences). Sorted cells were resuspended in zebrafish blastomere media and plated with 1 μM retinoic acid agonists for 6 hours. Cells were then collected and RNA was isolated using the RNeasy Micro Plus Kit (Qiagen) as per the manufacturer's instructions. cDNA was synthesized using the SuperScript III Kit (Life Technologies). Quantitative PCR was performed in triplicate on a BioRad iQ5 real-time PCR machine using Ssofast EvaGreen Supermix (BioRad). Samples were normalized to β-actin gene. Zebrafish primers used (forward and reverse respectively): actin, 5′-[…]-3′ (SEQ ID No:3) and 5′-[…] -3′ (SEQ ID No:4); c-myb, 5′-[…]-3′ (SEQ ID No:1) and 5′-[…]-3′ (SEQ ID No:2); mpx, 5′-[…]-3′ (SEQ ID No:11) and 5′-[…]-3′ (SEQ ID No:12); GFP, 5′-[…]-3′ (SEQ ID No:13) and 5′-[…]-3′ (SEQ ID No:14).

[2] = test system: ACC patient derived xenografts; assay: ACC xenotransplantation trials, average across ACCx6, ACCx9 and ACCx11; format: in vivo, nude mice; parameters: concentration or dose not given beside the values; settings: average of ACCx6, ACCx9, ACCx11
Procedure: Xenograft experiments: To generate ACC xenografts, 1×10^6 viable ACC cells were injected into the flank of female nude (Foxn1nu) mice for in vivo drug testing of ACCx6, ACCx9, and ACCx11 lines. Once tumors were visible, the mice were randomized to receive vehicle control or drug until reaching a […] tumor volume of 1,000 mm3. The mice in each group were treated with an oral flat dose five times weekly (po qdx5) for four cycles (two days off between cycles). The exact dosing was determined based on an initial MTD tolerability study and published literature reports. Five mice per group were treated for ACCx6 and ACCx9, and four mice per group were treated for ACCx11 (five mice in the control ACCx11 group), and the tumor volumes were quantified. Mice were treated with a flat dose of 0.2 mL orally of: 30 mg/mL isotretinoin; 40 mg/mL fenretinide; 4 mg/mL ATRA for ACCx6 and ACCx11 or 3 mg/mL ATRA for ACCx9. Mouse procedures used in this study were approved by the IACUC at South Texas Accelerated Research Therapeutics (San Antonio, Tex.).
Primagraft experiments: For in vivo drug testing, ACC tumor fragments from host animals were implanted subcutaneously into the flank of nude mice (CRL: ATH/NU). Once tumors reached 125-250 mm3, mice were randomized to receive vehicle or drug diluted in 10:90 DMSO:10% hydroxypropyl-beta-cyclodextrin orally until controls reached a tumor volume endpoint of 1-2 cm3 (4-9 mice per group: x5M1 and x6, 4 treated vs. 9 vehicle controls; x9, 4 treated vs. 5 vehicle controls; x11, 5 treated vs. 8 vehicle controls). Mice were treated with ATRA (ACC x6 and x11: 4 mg/mL, 0.2 mL flat dose; ACC×9: 3 mg/mL, 0.2 mL flat dose) or isotretinoin (30 mg/mL, 0.2 mL flat dose). Tumor growth was monitored and mice weighed twice weekly and studies ended when final group reached tumor volume endpoint. No statistical methods were employed to determine the sample size, and no blinding of investigators was performed. After long-term tumor growth inhibition studies were completed, the ATRA treated mice stopped receiving treatment and were maintained longer as indicated to monitor tumor maintenance after treatment cessation. For long-term tumor growth inhibition studies, ACC x6, x9, and x11 models were used and primagrafts collected at the completion of the study. Short-term kinetics studies were also undertaken with ACC x9 and x5M1 primagrafts involving 3 day ATRA treatments. All animal procedures used in this study were approved by the IACUC at START, San Antonio, Tex.

c-myb [3] = assay: U937 time course qPCR of c-myb; format: cell-based, human; settings: for myb levels in U937 by qPCR: 1 μM, 6, 24 and 48 hours
Procedure: Cell culture: U937 cells were grown in RPMI 1640 (Life Technologies), 10% heat inactivated FBS, and 1% Penicillin-Streptomycin (Invitrogen). CellTiter-Glo Luminescent Cell Viability Assay (Promega) was performed as per manufacturer's instructions. Cell viability was assessed at day 2.
as §1
U937 time course quantitative PCR analysis: U937 cells were plated with 1 μM retinoic acid agonists for the duration indicated. Cells were then collected and RNA was isolated using the RNeasy Plus Mini Kit (Qiagen) as per the manufacturer's instructions. Further processing was done as described in the section above. Samples were normalized to β-actin gene. Human primers used (forward and reverse respectively): actin, 5′-[…]-3′ (SEQ ID No:9) and 5′-[…]-3′ (SEQ ID No:10); c-myb, 5′-[…]-3′ (SEQ ID No:5) and 5′-[…]-3′ (SEQ ID No:6).

RARα = assay: Western blot of ACC primagrafts, RARα; format: in vivo, human; settings: long-term ACC x11 and short-term (3 days) ACC x5M1 primagrafts
From the text: Primagraft experiments: For in vivo drug testing, ACC tumor fragments from host animals were implanted subcutaneously into the flank of nude mice (CRL: ATH/NU). Once tumors reached 125-250 mm3, mice were randomized to receive vehicle or drug diluted in 10:90 DMSO:10% hydroxypropyl-beta-cyclodextrin orally until controls reached a tumor volume endpoint of 1-2 cm3 (4-9 mice per group: x5M1 and x6, 4 treated vs. 9 vehicle controls; x9, 4 treated vs. 5 vehicle controls; x11, 5 treated vs. 8 vehicle controls). Mice were treated with ATRA (ACC x6 and x11: 4 mg/mL, 0.2 mL flat dose; ACC×9: 3 mg/mL, 0.2 mL flat dose) or isotretinoin (30 mg/mL, 0.2 mL flat dose). Tumor growth was monitored and mice weighed twice weekly and studies ended when final group reached tumor volume endpoint. No statistical methods were employed to determine the sample size, and no blinding of investigators was performed. […]
Western blots: ACC x11 (from long-term tumor growth inhibition studies) and ACC x5M1 (from short-term kinetics studies) primagrafts were mechanically homogenized in RIPA lysis buffer (Thermo Scientific) supplemented by addition of complete protease inhibitor cocktail (Roche). Protein concentrations were determined by DC protein assay (BioRad).

[4] = test system: human salivary adenoid cystic carcinoma cell; settings: Chen et al. 1998; cell line said not to be bona fide ACC; cited from earlier work

SMILES | endogenous myb levels by qPCR (c-myb [1]) | Average tumor growth inhibition across the three models [2] [%] | Average tumor growth inhibition across the three models ([2]; listed as isotretinoin) [%] | myb levels in U937 by qPCR (c-myb [3]) | Average tumor growth inhibition across the three models ([2]; listed as fenretinide) [%] | myb levels in U937 by qPCR (c-myb [3]; listed as RA p-hydroxyanilide) | Average tumor growth inhibition across the three models ([2]; listed as all-trans retinoic acid (ATRA)) [%] | time to downregulation of c-myb expression (c-myb [3]; U937 cells, 1 μM ATRA) [h] | RARα protein expression (RARα) | effect on cell proliferation in vitro [4]
CC1=C(/C=C/C(C)=C/C=C/C(C)=C\C(=O)O)C(C)(C)CCC1 [Isotretinoin, 13-cis-retinoic acid] | significantly downregulate | 86 | 86 | significantly downregulate; also recorded: reduction | – | – | – | – | – | –
CC1=C(/C=C/C(C)=C/C=C/C(C)=C/C(=O)Nc2ccc(O)cc2)C(C)(C)CCC1 [Fenretinide, retinoic acid p-hydroxyanilide] | significantly downregulate | 53 | – | reduction | 53 | significantly downregulate | – | – | – | –
CC(C=CC1=C(C)CCCC1(C)C)=CC=C/C(C)=C/C(=O)O [ATRA, (E)-3,7-dimethyl-9-(2,6,6-trimethyl-1-cyclo-hexen-1-yl)-2,4,6,8-nonatetraenoic acid] | significantly downregulate | 88 | – | significantly downregulate; also recorded: reduction | – | – | 88 | ≤ 3 | increased | anti-proliferative effects
